These are literature values, as cited in US20080242731A1, “TOPICAL ANESTHESIA FORMULATION FOR BODILY CAVITIES” (T&A PHARMA PTY. LIMITED, priority 2003, published 2008).

The structures appear in SMILES notation.

The conditions of this data set: maintained at pH 7, low concentration, within 4 weeks.

For the compound `CCN(CC)CC(=O)Nc1c(C)cccc1C` [lignocaine, Lignocaine], the degradation is reported as 35%.
